Patent US20250074943A1, “DLL3 BINDING PEPTIDES AND USES THEREOF” (AMGEN INC., priority 2021, published 2025)
Like-named read-outs stand apart in the source and are kept apart here. Bridge positions count the residues as written; N and C are the ends. Peptide text beside a SMILES is read from it.

Molecular target: T1, recombinant DLL3 ectodomain (rhDLL3-Fc) (Homo sapiens, UniProt Q9NYJ7)
T1 construct: The recombinant DLL3 ectodomain (rhDLL3-Fc) was biotinylated; Fc
T1 sequence (Q9NYJ7 27-492 limits assumed): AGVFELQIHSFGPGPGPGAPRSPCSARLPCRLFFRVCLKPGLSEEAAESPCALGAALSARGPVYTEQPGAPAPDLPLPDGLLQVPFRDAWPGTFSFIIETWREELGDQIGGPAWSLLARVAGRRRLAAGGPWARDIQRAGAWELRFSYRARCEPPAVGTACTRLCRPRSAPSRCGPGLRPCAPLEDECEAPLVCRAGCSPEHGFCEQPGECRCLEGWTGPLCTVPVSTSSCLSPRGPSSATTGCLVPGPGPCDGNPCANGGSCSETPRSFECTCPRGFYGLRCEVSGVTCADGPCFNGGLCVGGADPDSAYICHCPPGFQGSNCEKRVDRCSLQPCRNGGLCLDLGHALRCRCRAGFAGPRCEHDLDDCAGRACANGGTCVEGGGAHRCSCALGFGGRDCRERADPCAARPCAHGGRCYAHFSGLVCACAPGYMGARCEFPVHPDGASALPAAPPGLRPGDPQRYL
Assay: Binding kinetic assay using Bio-layer interferometry (BLI)
Conditions: for binding mode to DLL3: peptides at 20, 4 and 0.8 μM, fit to 1:1 Langmuir binding model
Method: Binding kinetic assays were performed using Bio-layer interferometry (BLI) technology. The recombinant DLL3 ectodomain (rhDLL3-Fc) was biotinylated using EZ-Link Sulfo-NHS-LC-LC-Biotin Kit according to the manufacturer's protocol (Pierce by Thermo Fisher Scientific). The recombinant protein was incubated with an excess of NHS-LC-LC Biotin ester, in a molar ratio of 1:3 (protein: biotin), at 25° C. for 90 min. The un-reacted biotin ester was removed by subsequent buffer exchange on 0.5 ml Zeba spin desalting columns 7K MWCO (Pierce by Thermo Fisher Scientific).

[1] = Table 4, ± values from three independent experiments, read-out: RT (residence time) (converted)

residence time [1] | binding mode to DLL3 | residence time (range over the seven peptides, read-out: residence time) | affinity (wider dose-response 10×KD to 0.1×KD) | Kd (Table 4, global fitting 1:1 Langmuir, koff vs kon ratio, ± values from three independent experiments) | Structure (SMILES)
2.95 min | dose-response saturable binding |  |  |  | CC(C)[C@@H]1NC(=O)[C@H]([C@@H](C)O)NC(=O)[C@H](CCC(=O)O)NC(=O)[C@H](CCC(=O)O)NC(=O)[C@H](Cc2ccc(O)cc2)NC(=O)[C@H](Cc2c[nH]c3ccccc23)NC(=O)[C@H](CC(=O)O)NC(=O)[C@@H](NC(=O)[C@H](CCCNC(=N)N)NC(=O)[C@H](Cc2c[nH]c3ccccc23)NC(=O)[C@H](Cc2ccc(O)cc2)NC(=O)[C@H](CCC(=O)O)NC(=O)[C@@H](NC(=O)[C@@H](NC(=O)[C@H](CCC(=O)O)NC(=O)[C@H](C)N)[C@@H](C)O)C(C)C)CSSC[C@@H](C(=O)NCC(=O)N[C@H](C(N)=O)[C@@H](C)O)NC(=O)[C@H](C)NC1=O [PepSP1155] (H-AETVEYWRCDWYEETVACGT-NH2; disulfide 9-18)
0.733 min | dose-response saturable binding |  |  |  | CC(C)[C@H](NC(=O)[C@@H](NC(=O)[C@H](CCC(=O)O)NC(=O)[C@H](C)N)[C@@H](C)O)C(=O)N[C@@H](CCC(=O)O)C(=O)N[C@@H](Cc1ccccc1)C(=O)N[C@@H](Cc1ccc(O)cc1)C(=O)NCC(=O)N[C@H]1CSSC[C@@H](C(=O)N[C@@H](C)C(=O)N[C@@H](Cc2c[nH]c3ccccc23)C(N)=O)NC(=O)[C@H]([C@@H](C)O)NC(=O)[C@H](Cc2c[nH]c3ccccc23)NC(=O)CNC(=O)[C@H](CCCCN)NC(=O)[C@H](Cc2c[nH]c3ccccc23)NC(=O)[C@H](CC(=O)O)NC(=O)[C@H](Cc2c[nH]c3ccccc23)NC(=O)[C@H](CCCCN)NC1=O [PepSP1168] (H-AETVEFYGCKWDWKGWTCAW-NH2; disulfide 9-18; N-terminus assumed)
1.1 min | dose-response saturable binding |  |  |  | CC(C)[C@H](NC(=O)[C@@H]1CSSC[C@H](NC(=O)CNC(=O)[C@H](Cc2ccc(O)cc2)NC(=O)[C@H](Cc2ccccc2)NC(=O)[C@H](CCC(=O)O)NC(=O)[C@@H](NC(=O)[C@@H](NC(=O)[C@H](CCC(=O)O)NC(=O)[C@H](C)N)[C@@H](C)O)C(C)C)C(=O)N[C@@H](CCCNC(=N)N)C(=O)NCC(=O)NCC(=O)N[C@@H](CC(=O)O)C(=O)NCC(=O)N[C@@H](CCC(=O)O)C(=O)N[C@@H](Cc2c[nH]c3ccccc23)C(=O)N[C@@H]([C@@H](C)O)C(=O)N1)C(=O)N[C@@H](Cc1c[nH]c2ccccc12)C(N)=O [PepSP1165] (H-AETVEFYGCRGGDGEWTCVW-NH2; disulfide 9-18; N-terminus assumed)
1.27 min | dose-response saturable binding | 1 to 3 min | double-digit nM range |  | CC(C)[C@H](NC(=O)[C@@H](NC(=O)[C@H](CCC(=O)O)NC(=O)[C@H](C)N)[C@@H](C)O)C(=O)N[C@@H](CCC(=O)O)C(=O)N[C@@H](Cc1ccccc1)C(=O)N[C@@H](Cc1ccc(O)cc1)C(=O)NCC(=O)N[C@H]1CSSC[C@@H](C(=O)N[C@H](C(=O)N[C@@H](Cc2c[nH]c3ccccc23)C(N)=O)[C@@H](C)O)NC(=O)[C@H]([C@@H](C)O)NC(=O)[C@H](Cc2ccc(O)cc2)NC(=O)[C@H](CC(=O)O)NC(=O)[C@H](CC(N)=O)NC(=O)[C@H](CCCNC(=N)N)NC(=O)[C@H](CC(=O)O)NC(=O)CNC(=O)[C@H](Cc2ccc(O)cc2)NC1=O [PepSP1178] (H-AETVEFYGCYGDRNDYTCTW-NH2; disulfide 9-18; N-terminus assumed)
0.517 min | dose-response saturable binding |  |  |  | CSCC[C@@H]1NC(=O)[C@H](CO)NC(=O)[C@@H](NC(=O)CNC(=O)[C@H](Cc2ccc(O)cc2)NC(=O)[C@H](Cc2ccccc2)NC(=O)[C@H](CCC(=O)O)NC(=O)[C@@H](NC(=O)[C@@H](NC(=O)[C@H](CCC(=O)O)NC(=O)[C@H](C)N)[C@@H](C)O)C(C)C)CSSC[C@@H](C(=O)N[C@@H](C)C(=O)N[C@@H](Cc2c[nH]c3ccccc23)C(N)=O)NC(=O)[C@H]([C@@H](C)O)NC(=O)[C@H](C(C)C)NC(=O)CNC(=O)[C@H](CCCNC(=N)N)NC(=O)[C@H](Cc2c[nH]c3ccccc23)NC(=O)[C@H](CC(=O)O)NC1=O [PepSP1158] (H-AETVEFYGCSMDWRGVTCAW-NH2; disulfide 9-18)
1.48 min | dose-response saturable binding |  |  |  | CC(C)[C@H](NC(=O)[C@@H](NC(=O)[C@H](CCC(=O)O)NC(=O)[C@H](C)N)[C@@H](C)O)C(=O)N[C@@H](CCC(=O)O)C(=O)N[C@@H](Cc1ccccc1)C(=O)N[C@@H](Cc1c[nH]c2ccccc12)C(=O)N[C@@H](CO)C(=O)N[C@H]1CSSC[C@@H](C(=O)NCC(=O)N[C@H](C(N)=O)[C@@H](C)O)NC(=O)[C@H](CO)NC(=O)[C@H](C(C)C)NC(=O)[C@H]([C@@H](C)O)NC(=O)[C@H](Cc2c[nH]c3ccccc23)NC(=O)[C@H](Cc2ccc(O)cc2)NC(=O)[C@H](CO)NC(=O)[C@H](Cc2ccc(O)cc2)NC(=O)[C@H](Cc2c[nH]cn2)NC1=O [PepSP1157] (H-AETVEFWSCHYSYWTVSCGT-NH2; disulfide 9-18; N-terminus assumed)
2.78 min | dose-response saturable binding |  |  | 125 nM | CC(C)[C@@H]1NC(=O)CNC(=O)[C@H](CCC(=O)O)NC(=O)[C@H]([C@@H](C)O)NC(=O)[C@H](Cc2c[nH]c3ccccc23)NC(=O)[C@H](Cc2ccc(O)cc2)NC(=O)[C@@H](NC(=O)[C@@H](NC(=O)[C@H](Cc2c[nH]c3ccccc23)NC(=O)[C@H](Cc2ccccc2)NC(=O)[C@H](CCC(=O)O)NC(=O)[C@@H](NC(=O)[C@@H](NC(=O)[C@H](CCC(=O)O)NC(=O)[C@H](C)N)[C@@H](C)O)C(C)C)[C@@H](C)O)CSSC[C@@H](C(=O)N[C@@H](CCCNC(=N)N)C(=O)N[C@@H](Cc2c[nH]c3ccccc23)C(N)=O)NC(=O)CNC(=O)[C@H](CO)NC1=O [PepSP1151] (H-AETVEFWTCYWTEGVSGCRW-NH2; disulfide 9-18)
0.867 min | dose-response saturable binding |  |  |  | CC(C)[C@H](NC(=O)[C@@H](NC(=O)[C@H](CCC(=O)O)NC(=O)[C@H](C)N)[C@@H](C)O)C(=O)N[C@@H](CCC(=O)O)C(=O)N[C@@H](Cc1ccccc1)C(=O)N[C@@H](Cc1ccc(O)cc1)C(=O)NCC(=O)N[C@H]1CSSC[C@@H](C(=O)N[C@@H](CO)C(=O)N[C@@H](Cc2c[nH]c3ccccc23)C(N)=O)NC(=O)[C@H]([C@@H](C)O)NC(=O)[C@H](Cc2ccc(O)cc2)NC(=O)[C@H](CC(=O)O)NC(=O)[C@H](CC(N)=O)NC(=O)[C@H](Cc2ccc(O)cc2)NC(=O)[C@H](CC(N)=O)NC(=O)CNC(=O)[C@H](Cc2c[nH]c3ccccc23)NC1=O [PepSP1177] (H-AETVEFYGCWGNYNDYTCSW-NH2; disulfide 9-18; N-terminus assumed)
0.8 min | dose-response saturable binding |  |  |  | CC(C)[C@H](NC(=O)[C@@H]1CSSC[C@H](NC(=O)[C@H](Cc2ccc(O)cc2)NC(=O)[C@H](CC(=O)O)NC(=O)[C@H](Cc2ccccc2)NC(=O)[C@H](CCC(=O)O)NC(=O)[C@@H](NC(=O)[C@@H](NC(=O)[C@H](CCC(=O)O)NC(=O)[C@H](C)N)[C@@H](C)O)C(C)C)C(=O)N[C@@H](Cc2ccc(O)cc2)C(=O)NCC(=O)N[C@@H](CC(=O)O)C(=O)N[C@@H](C(C)C)C(=O)N[C@@H](CCC(=O)O)C(=O)N[C@@H](CCC(=O)O)C(=O)N[C@@H](Cc2c[nH]c3ccccc23)C(=O)N[C@@H]([C@@H](C)O)C(=O)N1)C(=O)N[C@@H](Cc1ccc(O)cc1)C(N)=O [PepSP1166] (H-AETVEFDYCYGDVEEWTCVY-NH2; disulfide 9-18; N-terminus assumed)
